Test results taken from ChEMBL document CHEMBL1201862, “PubChem BioAssay data set” (2004).
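1) Cells in 96-well plates. 2) Compound, 48 h, 5 concentrations. 3) Linear interpolation between surrounding doses. 4) Unreached endpoint = highest concentration. GI50: concentration for 50% inhibition of growth.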 Active and inactive are the calls of the source. No stated cut-off is given here; in the data, active = GI50 up to about 1.1 µM and inactive = higher.

What was measured:
Test in all cases: DTP human tumour cell line panel, 48 h
DMS-273 = tested on: DMS-273
BT-549 = tested on: BT-549
NCI/ADR-RES = tested on: NCI/ADR-RES
MDA-MB-435 = tested on: MDA-MB-435
K562 = tested on: K562
UACC-62 = tested on: UACC-62
A498 = tested on: A498
SNB-19 = tested on: SNB-19
A549 = tested on: A549
U-251 = tested on: U-251
DU-145 = tested on: DU-145
NCI-H460 = tested on: NCI-H460
ACHN = tested on: ACHN
SF-539 = tested on: SF-539
Hs-578T = tested on: Hs-578T
DLD-1 = tested on: DLD-1
SR = tested on: SR
OVCAR-4 = tested on: OVCAR-4
MDA-MB-231 = tested on: MDA-MB-231
LOX IMVI = tested on: LOX IMVI
PC-3 = tested on: PC-3
KM12 = tested on: KM12
Malme-3M = tested on: Malme-3M
SW-620 = tested on: SW-620
KM-20L2 = tested on: KM-20L2
RPMI-8226 = tested on: RPMI-8226
IGROV-1 = tested on: IGROV-1
MCF7 = tested on: MCF7
DMS-114 = tested on: DMS-114
SK-MEL-28 = tested on: SK-MEL-28
NCI-H522 = tested on: NCI-H522
HOP-18 = tested on: HOP-18
COLO 205 = tested on: COLO 205
MOLT-4 = tested on: MOLT-4
SK-OV-3 = tested on: SK-OV-3
786-0 = tested on: 786-0
HCT-116 = tested on: HCT-116
RXF 393 = tested on: RXF 393
CCRF-CEM = tested on: CCRF-CEM
HCC 2998 = tested on: HCC 2998
UO-31 = tested on: UO-31
M19-MEL = tested on: M19-MEL
UACC-257 = tested on: UACC-257
HT-29 = tested on: HT-29
SK-MEL-5 = tested on: SK-MEL-5
SF-268 = tested on: SF-268
EKVX = tested on: EKVX
XF498 = tested on: XF498
OVCAR-5 = tested on: OVCAR-5
SK-MEL-2 = tested on: SK-MEL-2
CAKI-1 = tested on: CAKI-1
HOP-62 = tested on: HOP-62
SNB-78 = tested on: SNB-78
SN12C = tested on: SN12C
TK-10 = tested on: TK-10
NCI-H226 = tested on: NCI-H226
SF-295 = tested on: SF-295
HCT-15 = tested on: HCT-15
NCI-H23 = tested on: NCI-H23
OVCAR-3 = tested on: OVCAR-3
LXFL 529 = tested on: LXFL 529
SNB-75 = tested on: SNB-75
RXF 631 = tested on: RXF 631
HL-60 = tested on: HL-60
OVCAR-8 = tested on: OVCAR-8
HOP-92 = tested on: HOP-92
M14 = tested on: M14
MDA-N = tested on: MDA-N
T47D = tested on: T47D

SMILES: C=C1CC2(OC1=O)c1ccccc1C=Cc1ccccc12
- GI50 (DMS-273): 14.8 µM (inactive)
- GI50 (BT-549): 1.83 µM (inactive)
- GI50 (NCI/ADR-RES): 1.64 µM (inactive)
- GI50 (MDA-MB-435): 1.68 µM (inactive)
- GI50 (K562): 1.2 µM (inactive)
- GI50 (UACC-62): 5.13 µM (inactive)
- GI50 (A498): 8.24 µM (inactive)
- GI50 (SNB-19): 16 µM (inactive)
- GI50 (A549): 9.42 µM (inactive)
- GI50 (U-251): 8.04 µM (inactive)
- GI50 (DU-145): 11.5 µM (inactive)
- GI50 (NCI-H460): 11.2 µM (inactive)
- GI50 (ACHN): 4.8 µM (inactive)
- GI50 (SF-539): 2.83 µM (inactive)
- GI50 (Hs-578T): 2.51 µM (inactive)
- GI50 (DLD-1): 1.87 µM (inactive)
- GI50 (SR): 0.82 µM (active)
- GI50 (OVCAR-4): 4.4 µM (inactive)
- GI50 (MDA-MB-231): 2.26 µM (inactive)
- GI50 (LOX IMVI): 1.38 µM (inactive)
- GI50 (PC-3): 5.79 µM (inactive)
- GI50 (KM12): 4.05 µM (inactive)
- GI50 (Malme-3M): 4.94 µM (inactive)
- GI50 (SW-620): 1.5 µM (inactive)
- GI50 (KM-20L2): 8.13 µM (inactive)
- GI50 (RPMI-8226): 1.42 µM (inactive)
- GI50 (IGROV-1): 7.26 µM (inactive)
- GI50 (MCF7): 2.3 µM (inactive)
- GI50 (DMS-114): 7.76 µM (inactive)
- GI50 (SK-MEL-28): 4.34 µM (inactive)
- GI50 (NCI-H522): 1.76 µM (inactive)
- GI50 (HOP-18): 14.3 µM (inactive)
- GI50 (COLO 205): 2.3 µM (inactive)
- GI50 (MOLT-4): 1.81 µM (inactive)
- GI50 (SK-OV-3): 16.9 µM (inactive)
- GI50 (786-0): 2.86 µM (inactive)
- GI50 (HCT-116): 1.73 µM (inactive)
- GI50 (RXF 393): 3.19 µM (inactive)
- GI50 (CCRF-CEM): 0.697 µM (active)
- GI50 (HCC 2998): 6.95 µM (inactive)
- GI50 (UO-31): 8.3 µM (inactive)
- GI50 (M19-MEL): 5.47 µM (inactive)
- GI50 (UACC-257): 5.14 µM (inactive)
- GI50 (HT-29): 2.44 µM (inactive)
- GI50 (SK-MEL-5): 7.33 µM (inactive)
- GI50 (SF-268): 7.23 µM (inactive)
- GI50 (EKVX): 8.85 µM (inactive)
- GI50 (XF498): 13.6 µM (inactive)
- GI50 (OVCAR-5): 9.31 µM (inactive)
- GI50 (SK-MEL-2): 8.65 µM (inactive)
- GI50 (CAKI-1): 3.05 µM (inactive)
- GI50 (HOP-62): 12.6 µM (inactive)
- GI50 (SNB-78): 3.08 µM (inactive)
- GI50 (SN12C): 2.66 µM (inactive)
- GI50 (TK-10): 5.86 µM (inactive)
- GI50 (NCI-H226): 5.08 µM (inactive)
- GI50 (SF-295): 18 µM (inactive)
- GI50 (HCT-15): 3.25 µM
- GI50 (NCI-H23): 6.32 µM (inactive)
- GI50 (OVCAR-3): 4.61 µM (inactive)
- GI50 (LXFL 529): 2.92 µM (inactive)
- GI50 (SNB-75): 9.18 µM (inactive)
- GI50 (RXF 631): 9.2 µM (inactive)
- GI50 (HL-60): 0.661 µM (active)
- GI50 (OVCAR-8): 5.21 µM (inactive)
- GI50 (HOP-92): 1.61 µM (inactive)
- GI50 (M14): 4.25 µM (inactive)
- GI50 (MDA-N): 1.96 µM (inactive)
- GI50 (T47D): 1.93 µM (inactive)
